Values of other authors, collected in US20260124184A1, “ONCE DAILY ALDOSTERONE SYNTHASE INHIBITOR (R)-(+)-5-(P-CYANOPHENYL)-5,6,7,8-TETRAHYDROIMIDAZO[L,5-A]PYRIDINE” (priority 2022, published 2026).

Biological target: aldosterone synthase (Homo sapiens, UniProt P19099)
Conditions: ee of (R) form ≥99%; per WO 2018/078049; cited from earlier work

aldosterone synthase, sequence (P19099 25-503, species assumed): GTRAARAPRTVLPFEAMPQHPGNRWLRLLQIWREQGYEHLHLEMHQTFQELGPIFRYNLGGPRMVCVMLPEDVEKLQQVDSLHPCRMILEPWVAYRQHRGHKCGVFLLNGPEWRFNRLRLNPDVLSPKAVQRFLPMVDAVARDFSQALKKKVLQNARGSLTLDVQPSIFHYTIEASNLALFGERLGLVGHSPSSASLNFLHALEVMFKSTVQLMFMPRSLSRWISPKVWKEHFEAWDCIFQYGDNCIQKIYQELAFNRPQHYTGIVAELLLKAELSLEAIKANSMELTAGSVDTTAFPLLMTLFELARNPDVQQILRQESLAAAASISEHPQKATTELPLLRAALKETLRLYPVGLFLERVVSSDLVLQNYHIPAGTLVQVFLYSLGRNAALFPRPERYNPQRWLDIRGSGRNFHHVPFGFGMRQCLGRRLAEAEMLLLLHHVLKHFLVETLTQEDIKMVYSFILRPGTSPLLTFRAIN

N#Cc1ccc([C@H]2CCCc3cncn32)cc1 [(R)-(+)-5-(p-cyanophenyl)-5,6,7,8-tetrahydroimidazo[1,5-a]pyridine]
aldosterone synthase inhibition, potency: low nanomolar | aldosterone synthase inhibition, selectivity: selective
